{"source": "patent US7098219B2", "about": "“Inhibitors of cellular efflux pumps of microbes” (Wockhart Limited, priority 2000, dated 2006)", "system": "Staphylococcus aureus 1199 B NorA+", "assay_type": "cell-based", "details": "combination with ciprofloxacin, broth microdilution checkerboard, 35° C. 20 hours; FIC index ≦0.5 synergistic, 0.5–2.0 additive, >2.0 antagonistic", "description": "Testing method for inhibition of the efflux pump of Staphylococcus aureus 1199B NorA^+\n[…]. Victor Lorian, Md., Fourth edition 1996, pp 333–338).\nIn short, the assay involves broth microdilution method performed as recommended by the National Committee for Clinical Laboratory Standards (NCCLS) 1997 (Methods for Dilution of Antimicrobial Susceptibility Tests for Bacteria that Grow Aerobically, Fourth edition; Approved Standard, NCCLS document M7-A4, vol. 17, No. 2). The test organism used for the assay is Staphylococcus aureus 1199 B NorA^+.\n[…]. Stock solutions of the efflux pump inhibitors tested are prepared in dimethyl sulfoxide (DMSO) at a final concentration of 5 mg/ml. Stock solutions are further diluted in Mueller Hinton Broth as per the need of the assay. Ciprofloxacin is dissolved in water.\nThe checkerboard assay is performed in microtiter plates. […] The efflux pump inhibitor is diluted in the Y-axis, each row containing an equal concentration of efflux pump inhibitor. The result of these manipulations is that each well of the microtiter plate contains a unique combination of concentrations of the two agents. Bacterial inoculum is added at 5×10^5 CFU/ml. Microtiter plates are incubated at 35° C. for 20 hours. Reading is done by visibly noting turbidity and confirmed using a microtiter plate reader (Molecular Devices). The FIC index is calculated as\n(A) is the concentration of the experimental efflux pump inhibitor in the well that is the lowest inhibitory concentration in the Y-axis. (MICA) is the MIC of Staphylococcus aureus to experimental efflux pump inhibitor alone. FICA is the fractional inhibitory concentration of an experimental efflux pump inhibitor. […] (Antimicrobial Combination In Antibiotics in Laboratory Medicine, Ed. Victor Lorian, Md., Fourth edition 1996, pp 333–338)."}
{"molecule": "5-Amino-1-ethyl-6,8-difluoro-1,4-dihydro-7-[(1∝,5∝,6∝)-6′-(N-t-butoxycarbonylamino)-3-azabicyclo[3.1.0]-hex-3-yl}-4-oxo-quinoline-3-carboxylic acid [Example 8 (NorA)]", "values": [{"measurement": "FIC INDEX", "result": 0.314}]}
{"molecule": "CCn1cc(C(=O)O)c(=O)c2cc(F)c(N3CCc4ccccc4C3)cc21", "note": "[1 (NorA), 1-Ethyl-6-fluoro-1,4-dihydro-7-(1′,2′,3′,4′-tetrahydroisoquinolin-2-yl)-4-oxo-quinoline-3-carboxylic acid]", "values": [{"measurement": "FIC INDEX", "result": 0.314}]}
{"molecule": "CCn1cc(C(=O)O)c(=O)c2c(N)c(F)c(N3CC(N)CC3C)c(F)c21", "note": "(stereo not drawn) [5 (NorA), 5-Amino-1-ethyl-6,8-difluoro-1,4-dihydro-7-(3′-amino-5′-methylpyrrolidin-1-yl)-4-oxo-quinoline-3-carboxylic acid]", "values": [{"measurement": "FIC INDEX", "result": 0.378}]}
{"molecule": "CC(=O)NC1CC(C)N(c2cc3c(cc2F)c(=O)c(C(=O)O)cn3C2CC2)C1", "note": "(stereo not drawn) [9 (NorA), 1-Cyclopropyl-6-fluoro-1,4-dihydro-7-(3′-acetamido-5′-methylpyrrolidin-1-yl)-4-oxo-quinoline-3-carboxylic acid]", "values": [{"measurement": "FIC INDEX", "result": 0.314}]}
{"molecule": "COc1c(N2CCC(N(C)C)C(C)C2)c(F)cc2c(=O)c(C(=O)O)cn(C3CC3)c12", "note": "(stereo not drawn) [19 (NorA), 1-Cyclopropyl-6-fluoro-8-methoxy-1,4-dihydro-7-{4′-(N-dimethylamino)-3′-methylpiperidin-1-yl}-4-oxo-quinoline-3-carboxylic acid]", "values": [{"measurement": "FIC INDEX", "result": 0.200}]}
{"molecule": "O=C(O)c1cn(-c2ccc(F)cc2F)c2nc(NC3CCN(c4cc5c(cc4F)c(=O)c(C(=O)O)cn5C4CC4)C3)c(F)cc2c1=O", "note": "(stereo not drawn) [Bis compound 1, N-1-{7-(1-cyclopropyl-6-fluoro-1,4-dihydro-4-oxo-quinoline-3-carboxylic acid)}-N-3-amino-{7-(1-(2,4-difluorophenyl)-6-fluoro-1,4-dihydro-4-oxo-1,8-naphthyridine-3-carboxylic acid)}-pyrrolidine]", "values": [{"measurement": "FIC INDEX", "result": 0.253}]}
{"molecule": "O=C(O)c1cn(C2CC2)c2nc(NC3CCN(c4nc5c(cc4F)c(=O)c(C(=O)O)cn5C4CC4)C3)c(F)cc2c1=O", "note": "(stereo not drawn) [Bis compound 2]", "values": [{"measurement": "FIC INDEX", "result": 0.282}]}
{"molecule": "Nc1c(F)c(NC2CCN(c3nc4c(cc3F)c(=O)c(C(=O)O)cn4C3CC3)C2)c(F)c2c1c(=O)c(C(=O)O)cn2C1CC1", "note": "(stereo not drawn) [Bis compound 3]", "values": [{"measurement": "FIC INDEX", "result": 0.314}]}
{"molecule": "Nc1c(F)c(N2CCN(c3nc4c(cc3F)c(=O)c(C(=O)O)cn4C3CC3)CC2)c(F)c2c1c(=O)c(C(=O)O)cn2C1CC1", "note": "[Bis compound 4, N-1-{7-(1-cyclopropyl-6-fluoro-1,4-dihydro-4-oxo-1,8-naphthyridine-3-carboxylic acid)}-N-4-{7-(1-cyclopropyl-6,8-difluoro-5-amino-1,4-dihydro-4-oxo-quinoline-3-carboxylic acid)}-piperazine]", "values": [{"measurement": "FIC INDEX", "result": 0.282}]}
{"molecule": "Cc1c(F)c(N2CCC(Nc3nc4c(cc3F)c(=O)c(C(=O)O)cn4-c3ccc(F)cc3F)C2)cc2c1c(=O)c(C(=O)O)cn2C1CC1", "note": "(stereo not drawn) [Bis compound 5, N-1-{7-(1-cyclopropyl-6-fluoro-5-methyl-1,4-dihydro-4-oxo-quinolone-3-carboxylic acid)}-N-3-amino-{7-(1-(2,4-difluorophenyl)-6-fluoro-1,4-dihydro-4-oxo-1,8-naphthyridine-3-carboxylic acid)}-pyrrolidine]", "values": [{"measurement": "FIC INDEX", "result": 0.320}]}
{"molecule": "Cc1c(F)c(N2CCC(Nc3c(F)c(N)c4c(=O)c(C(=O)O)cn(C5CC5)c4c3F)CC2)cc2c1c(=O)c(C(=O)O)cn2C1CC1", "note": "[Bis compound 6, N-1-{7-(1-cyclopropyl-6-fluoro-5-methyl-1,4-dihydro-4-oxo-quinolone-3-carboxylic acid)}-N-4-amino{7-(1-cyclopropyl-6,8-difluoro-5-amino-1,4-dihydro-4-oxo-quinoline-3-carboxylic acid)}-piperidine]", "values": [{"measurement": "FIC INDEX", "result": 0.304}]}
{"molecule": "Cc1c(F)c(N2CCC(Nc3c(F)c(N)c4c(=O)c(C(=O)O)cn(C5CC5)c4c3F)C2)cc2c1c(=O)c(C(=O)O)cn2C1CC1", "note": "(stereo not drawn) [Bis compound 7, N-1-{7-(1-cyclopropyl-6-fluoro-5-methyl-1,4-dihydro-4-oxo-quinolone-3-carboxylic acid)}-N-3-amino{7-(1-cyclopropyl-6,8-difluoro-5-amino-1,4-dihydro-4-oxo-quinoline-3-carboxylic acid)}-pyrrolidine]", "values": [{"measurement": "FIC INDEX", "result": 0.304}]}
{"molecule": "O=C(O)c1cn(-c2ccc(F)cc2F)c2nc(N3CCN(c4cc5c(cc4F)c(=O)c(C(=O)O)cn5C4CC4)CC3)c(F)cc2c1=O", "note": "[Bis compound 8, N-1-{7-(1-(2,4-difluorophenyl)-6-fluoro-1,4-dihydro-4-oxo-1,8-naphthyridine-3-carboxylic acid)}-N-4-{7-(1-cyclopropyl-6-fluoro-1,4-dihydro-4-oxo-quinoline-3-carboxylic acid)}-piperazine]", "values": [{"measurement": "FIC INDEX", "result": 0.192}]}
{"molecule": "CCOC(=O)c1cc(F)c(NC2CCN(c3c(F)c(N)c4c(=O)c(C(=O)O)cn(C5CC5)c4c3F)CC2)c(F)c1F", "note": "[Bis compound 10, N-1-{7-(1-cyclopropyl-6,8-difluoro-5-amino-1,4-dihydro-4-oxo-quinolone-3-carboxylic acid)}-N-4-amino-{ethyl 2,3,6-trifluorophenyl-4-carboxylate}-piperidine]", "values": [{"measurement": "FIC INDEX", "result": 0.304}]}
{"molecule": "CCn1cc(C(=O)O)c(=O)c2cc(F)c(N3CCC(OC(C)=O)CC3)c(F)c21", "note": "[Example 2 (NorA), 1-Ethyl-6,8-fluoro-1,4-dihydro-7-(4′-acetoxypiperidin-1-yl)-4-oxo-quinoline-3-carboxylic acid]", "values": [{"measurement": "FIC INDEX", "result": 0.314}]}
{"molecule": "CCn1cc(C(=O)O)c(=O)c2cc(F)c(N3CCN(CCN4CCOC4=O)CC3)c(F)c21", "note": "[Example 3 (NorA), 1-Ethyl-6,8-fluoro-1,4-dihydro-7-(4′-{2′-(2′-oxazolidin-1yl)ethyl}piperazin-1-yl)-4-oxo-quinoline-3-carboxylic acid]", "values": [{"measurement": "FIC INDEX", "result": 0.188}]}
{"molecule": "CCn1cc(C(=O)O)c(=O)c2c(N)c(F)c(N3CCC(N)CC3)c(F)c21", "note": "[Example 6 (NorA), 5-Amino-1-ethyl-6,8-difluoro-1,4-dihydro-7-(4′-aminopiperidin-1-yl)-4-oxo-quinoline-3-carboxylic acid]", "values": [{"measurement": "FIC INDEX", "result": 0.314}]}
{"molecule": "CCn1cc(C(=O)O)c(=O)c2c(N)c(F)c(N3CCC(NC(C)=O)CC3)c(F)c21", "note": "[Example 7 (NorA), 5-Amino-1-ethyl-6,8-difluoro-1,4-dihydro-7-{4′-(acetamido)piperidin-1-yl}-4-oxo-quinoline-3-carboxylic acid]", "values": [{"measurement": "FIC INDEX", "result": 0.312}]}
{"molecule": "CC1CC(N)CN1c1cc2c(cc1F)c(=O)c(C(=O)O)cn2C1CC1", "note": "(stereo not drawn) [Example 10 (NorA), 1-Cyclopropyl-6-fluoro-1,4-dihydro-7-(3′-amino-5′-methylpyrrolidin-1-yl)-4-oxo-quinoline-3-carboxylic acid]", "values": [{"measurement": "FIC INDEX", "result": 0.314}]}
{"molecule": "CC(=O)OC1CCN(c2cc3c(cc2F)c(=O)c(C(=O)O)cn3C2CC2)CC1", "note": "[Example 11 (NorA), 1-Cyclopropyl-6-fluoro-1,4-dihydro-7-(4′-acetoxypiperidin-1-yl)-4-oxo-quinoline-3-carboxylic acid]", "values": [{"measurement": "FIC INDEX", "result": 0.282}]}
{"molecule": "CN(C)C1CCN(c2cc3c(cc2F)c(=O)c(C(=O)O)cn3C2CC2)CC1", "note": "[Example 12 (NorA), 1-Cyclopropyl-6-fluoro-1,4-dihydro-7-(4′-(N-dimethylamino)piperidin-1-yl)-4-oxo-quinoline-3-carboxylic acid]", "values": [{"measurement": "FIC INDEX", "result": 0.188}]}
{"molecule": "CC1CC(C)CN(c2cc3c(cc2F)c(=O)c(C(=O)O)cn3C2CC2)C1", "note": "(stereo not drawn) [Example 13 (NorA), 1-Cyclopropyl-6-fluoro-1,4-dihydro-7-(3′,5′-dimethylpiperidin-1-yl)-4-oxo-quinoline-3-carboxylic acid]", "values": [{"measurement": "FIC INDEX", "result": 0.314}]}
{"molecule": "CC1CN(c2cc3c(cc2F)c(=O)c(C(=O)O)cn3C2CC2)CC(C)C1O", "note": "(stereo not drawn) [Example 14 (NorA), 1-Cyclopropyl-6-fluoro-1,4-dihydro-7-(4′-hydroxy-3′,5′-dimethylpiperidin-1-yl)-4-oxo-quinoline-3-carboxylic acid]", "values": [{"measurement": "FIC INDEX", "result": 0.314}]}
{"molecule": "CC1CN(c2cc3c(cc2F)c(=O)c(C(=O)O)cn3C2CC2)CC(C)N1C", "note": "(stereo not drawn) [Example 15 (NorA), 1-Cyclopropyl-6-fluoro-1,4-dihydro-7-(3′,4′,5′-trimethylpiperazin-1-yl)-4-oxo-quinoline-3-carboxylic acid]", "values": [{"measurement": "FIC INDEX", "result": 0.314}]}
{"molecule": "CCOC1CCN(c2cc3c(c(C)c2F)c(=O)c(C(=O)O)cn3C2CC2)CC1", "note": "[Example 17 (NorA), 1-Cyclopropyl-6-fluoro-1,4-dihydro-5-methyl-7-(4′-ethoxypiperidin-1-yl)-4-oxo-quinoline-3-carboxylic acid]", "values": [{"measurement": "FIC INDEX", "result": 0.378}]}
{"molecule": "Cc1c(F)c(N2CCNC(C)(C)C2)cc2c1c(=O)c(C(=O)O)cn2C1CC1", "note": "[Example 18 (NorA), 1-Cyclopropyl-6-fluoro-1,4-dihydro-5-methyl-7-(3′,3′-dimethylpiperazin-1-yl)-4-oxo-quinoline-3-carboxylic acid]", "values": [{"measurement": "FIC INDEX", "result": 0.314}]}
{"molecule": "COc1c(N2CCC(O)C(CC(C)C)C2)c(F)cc2c(=O)c(C(=O)O)cn(C3CC3)c12", "note": "(stereo not drawn) [Example 20 (NorA), 1-Cyclopropyl-6-fluoro-8-methoxy-1,4-dihydro-7-(4′-hydroxy-3′-isobutylpiperidin-1-yl)-4-oxo-quinoline-3-carboxylic acid]", "values": [{"measurement": "FIC INDEX", "result": 0.248}]}
